Reference: patent US5120835A, “Saccharide derivatives of protocatechualdehyde” (Kureha Chemical Industry Co., Ltd., priority 1989, dated 1992)
Like-named read-outs stand apart in the source and are kept apart here.

Experiments:
granuloma growth = experiment: Granuloma growth inhibiting effect (paper disk implanted subcutaneously in rats); assay type: in vivo, male Donryu rats; conditions: oral, 10 days; for Granuloma Dry weight (mean): control 131.9 mg
Protocol: Effects of inhibiting granuloma growth were investigated by the method proposed by Fujimura et al. [Oyo Yakuri, 19 (3), 329 (1980)], using five-week old male Donryu rats. As paper disks, filter papers measuring 13 mm.0. and 28 mg and soaked in […] CMC solution (containing 0.1 mg/ml of 1 million unit dihydroxystreptomycin and penicillin, respectively) were used. A paper disk was implanted subcutaneously in the back of the rat under anesthesia. The test drugs dispersed in 0.3% CMC solutions were administered orally for 10 days; then, on the 11th day the granulomas were removed and their weights were measured. To the control group were administered the original 0.3% CMC solution containing no test drug.

[1] = Acute toxicity in mice (LD50, Litchfield-Wilcoxon method); conditions: mouse, in vivo, Jcl:ICR female mice, observed for 7 days
Protocol: The prescribed amounts of the test drugs dispersed in 0.3% CMC aqueous solution at a rate of 20 mg/ml for oral administration and the test drugs dissolved in 10% ethanol isotonic sodium chloride solution as a rate of 200 mg/ml for intraperitoneal administration were applied using gastric probes and syringes, respectively.

male rats = conditions: DRUGS IN JAPAN (ETHICAL DRUGS), 9th Edition (1985), p.105; cited from earlier work
male mice = conditions: DRUGS IN JAPAN (ETHICAL DRUGS), 9th Edition (1985), p.105; cited from earlier work
[2] = Toxicity compared in words; assay type: in vivo; conditions: from LD50 of reference against LD50 of Table 1
[3] = tested on: blood platelet agglutination; conditions: in vitro, low concentration level; cited from earlier work
[4] = in vivo; cited from earlier work
leukocytic migration = conditions: in vitro, low concentration level; cited from earlier work
[5] = ip, intraperitoneal, dissolved in 10% ethanol isotonic sodium chloride solution, read-out: LD50, Intraperitoneal Administration
[6] = oral, dispersed in 0.3% CMC aqueous solution, read-out: LD50, Oral Administration

Row | Compound | Granuloma Inhibition rate (granuloma growth; 10 mg/kg/day) | Granuloma Dry weight (mean) (granuloma growth; 10 mg/kg/day) | Granuloma Inhibition rate (granuloma growth; 50 mg/kg/day) | Granuloma Dry weight (mean) (granuloma growth; 50 mg/kg/day) | LD50 at 168 h [1, 5] | LD50 at 168 h [1, 6] | Granuloma Inhibition rate (granuloma growth; 3 mg/kg/day) | Granuloma Dry weight (mean) (granuloma growth; 3 mg/kg/day) | LD50 value (male rats) | LD50 value (male mice) | Toxicity compared with PAL and the compounds of the present invention (in words) [2] | Inhibiting blood platelet agglutination (in words) [3] | Metabolic rate (in words) [4] | Inhibiting leukocytic migration (in words) (leukocytic migration)
1 | CO[C@H]1O[C@@H]2COC(c3ccc(O)c(O)c3)O[C@H]2[C@H](O)[C@H]1O (stereo partly drawn) [Ib1, Methyl-4,6-O-(3',4'-dihydroxybenzylidene)-α-D-glucopyranoside] | 30.7% | 91.4 mg | 50.0% | 66.0 mg | > 3000 mg/kg | > 4000 mg/kg |  |  |  |  |  |  |  | 
2 | COc1ccc2c(c1)c(CC(=O)O)c(C)n2C(=O)c1ccc(Cl)cc1 [Indomethacin, indomethacin] |  |  |  |  |  |  | 45.9% | 71.3 mg | 29 mg/kg | 30.2 mg/kg | more toxic than both PAL and the compounds of the present invention |  |  | 
3 | CO[C@H]1O[C@@H]2COC(c3ccc(OC(=O)c4ccccc4)c(OC(=O)c4ccccc4)c3)O[C@H]2[C@H](O)[C@H]1O (stereo partly drawn) [Ia1, Methyl-4,6-O-(3',4'-dibenzoyloxybenzylidene)-α-D-glucopyranoside] | 29.8% | 92.6 mg | 43.7% | 74.3 mg | 1900 mg/kg | > 4000 mg/kg |  |  |  |  |  |  |  | 
4 | O=Cc1ccc(O)c(O)c1 [PAL, protocatechualdehyde] |  |  | 34.2% | 86.8 mg |  |  |  |  |  |  |  | shows a suitable effect | higher metabolic rate | shows a suitable effect
